The target of one series is T1, D4 receptor (Homo sapiens, UniProt P21917).
T1 sequence (P21917 1-419): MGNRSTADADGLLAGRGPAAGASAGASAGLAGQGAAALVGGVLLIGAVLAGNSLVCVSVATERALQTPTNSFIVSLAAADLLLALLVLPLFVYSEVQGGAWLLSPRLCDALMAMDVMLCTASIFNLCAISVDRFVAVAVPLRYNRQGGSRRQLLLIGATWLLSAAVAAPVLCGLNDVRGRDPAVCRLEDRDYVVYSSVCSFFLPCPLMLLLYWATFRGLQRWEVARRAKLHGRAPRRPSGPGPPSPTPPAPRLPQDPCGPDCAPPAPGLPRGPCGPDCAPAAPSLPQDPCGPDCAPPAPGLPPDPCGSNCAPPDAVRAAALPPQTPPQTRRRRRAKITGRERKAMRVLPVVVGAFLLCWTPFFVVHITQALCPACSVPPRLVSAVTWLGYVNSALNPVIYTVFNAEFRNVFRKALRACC
The format is binding.

Another series has as its target D1 receptor (Homo sapiens, UniProt P21728). As to the kind of experiment: D1 receptor radioligand binding, [3H]SCH23390, HEK293 membranes.
In the next series the target is σ2 receptor (Homo sapiens, UniProt Q5BJF2). As to the kind of experiment: σ2 receptor radioligand binding, [3H]DTG, HEK293 membranes. The settings on record: ratio, σ1 over σ2.
Chain of σ2 receptor (Q5BJF2 whole entry, species assumed): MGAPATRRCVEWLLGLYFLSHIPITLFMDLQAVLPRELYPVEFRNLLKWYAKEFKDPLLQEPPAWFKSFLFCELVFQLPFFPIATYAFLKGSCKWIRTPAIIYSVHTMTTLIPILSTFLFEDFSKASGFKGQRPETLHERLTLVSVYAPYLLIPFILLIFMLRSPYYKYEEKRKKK
Series [1] in a line: Mouse liver microsomal intrinsic clearance. The format is in vitro ADME. The conditions noted are these: for CLint scaled: liver microsomes; for Predicted hepatic clearance mCLHEP: well-stirred organ CL model, binding terms excluded.
Series [2] can be described thus: Human liver microsomal intrinsic clearance. The settings on record: human; for CLint scaled: liver microsomes, Intrinsic clearance hCLINT, human liver microsomes; for Predicted hepatic clearance hCLHEP: well-stirred organ CL model, binding terms excluded. The format is in vitro ADME.
Another series addresses T2, α2A (Homo sapiens, UniProt P08913).
T2 sequence (P08913 1-465): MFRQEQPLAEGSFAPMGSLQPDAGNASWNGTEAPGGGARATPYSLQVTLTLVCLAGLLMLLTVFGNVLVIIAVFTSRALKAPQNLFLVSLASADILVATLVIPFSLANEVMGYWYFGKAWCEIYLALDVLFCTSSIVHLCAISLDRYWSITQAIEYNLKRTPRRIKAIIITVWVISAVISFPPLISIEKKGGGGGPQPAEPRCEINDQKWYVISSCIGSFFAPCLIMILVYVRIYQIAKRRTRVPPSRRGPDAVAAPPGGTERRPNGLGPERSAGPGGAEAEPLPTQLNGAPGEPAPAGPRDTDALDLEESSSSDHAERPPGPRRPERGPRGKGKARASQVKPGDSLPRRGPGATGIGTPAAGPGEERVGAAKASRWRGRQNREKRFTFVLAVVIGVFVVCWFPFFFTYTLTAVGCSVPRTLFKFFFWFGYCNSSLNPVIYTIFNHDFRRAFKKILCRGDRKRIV
As to the kind of experiment: PDSP panel binding, α2A.

Series [3] is described as follows: Discrete mouse in vivo PK study, plasma and brain. The conditions noted are these: for half-life: ip, 5 mg/kg.
Series [4] can be described thus: Mouse plasma protein binding, equilibrium dialysis. The format is in vitro ADME. The conditions noted are these: mouse, plasma, fu (mPPB), fraction, used for Kp,uu.
Series [5] in a line: Mouse brain homogenate binding. The format is in vitro ADME.
The target in the next series is SERT (Homo sapiens, UniProt P31645). As to the kind of experiment: PDSP panel binding, SERT. The conditions noted are these: σ1 over SERT.
Chain of SERT (P31645 whole entry, species assumed): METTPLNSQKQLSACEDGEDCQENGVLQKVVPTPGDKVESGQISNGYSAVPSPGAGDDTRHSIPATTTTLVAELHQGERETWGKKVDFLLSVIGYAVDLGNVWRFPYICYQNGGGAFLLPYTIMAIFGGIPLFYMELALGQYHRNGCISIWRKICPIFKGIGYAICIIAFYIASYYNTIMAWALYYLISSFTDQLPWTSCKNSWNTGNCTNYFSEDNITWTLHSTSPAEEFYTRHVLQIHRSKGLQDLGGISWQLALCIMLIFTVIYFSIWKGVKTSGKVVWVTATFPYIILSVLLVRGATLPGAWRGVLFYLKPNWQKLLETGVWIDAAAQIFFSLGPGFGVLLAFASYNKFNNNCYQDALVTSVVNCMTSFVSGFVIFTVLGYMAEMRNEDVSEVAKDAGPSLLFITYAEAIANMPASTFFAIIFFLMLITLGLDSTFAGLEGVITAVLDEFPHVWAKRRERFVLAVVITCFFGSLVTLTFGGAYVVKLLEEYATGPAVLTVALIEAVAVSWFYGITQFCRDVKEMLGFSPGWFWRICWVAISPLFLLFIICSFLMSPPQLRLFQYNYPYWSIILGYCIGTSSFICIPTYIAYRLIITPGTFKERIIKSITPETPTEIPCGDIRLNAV
The next series addresses T3, α2C (Homo sapiens, UniProt P18825).
T3 sequence (P18825 1-462): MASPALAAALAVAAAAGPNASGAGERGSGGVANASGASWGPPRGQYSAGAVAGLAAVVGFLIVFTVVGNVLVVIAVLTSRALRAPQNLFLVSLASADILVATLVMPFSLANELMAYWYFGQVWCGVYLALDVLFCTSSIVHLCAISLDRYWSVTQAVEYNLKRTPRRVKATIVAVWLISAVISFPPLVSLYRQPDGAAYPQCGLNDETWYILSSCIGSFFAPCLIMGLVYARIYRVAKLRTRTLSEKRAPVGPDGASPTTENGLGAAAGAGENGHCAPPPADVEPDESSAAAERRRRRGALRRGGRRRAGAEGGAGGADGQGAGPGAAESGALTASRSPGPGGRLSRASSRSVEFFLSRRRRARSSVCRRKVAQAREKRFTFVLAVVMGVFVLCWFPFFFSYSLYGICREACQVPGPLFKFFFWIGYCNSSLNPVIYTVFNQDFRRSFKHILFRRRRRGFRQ
As to the kind of experiment: PDSP panel binding, α2C.

Series [6] is described as follows: Human plasma protein binding, equilibrium dialysis. In kind it is in vitro ADME. For orientation: In equilibrium dialysis free small molecules cross a membrane that holds back macromolecules.

This is an account of results in article PMC12969314 (European journal of medicinal chemistry, 2022).

Chain of D1 receptor (P21728 whole entry): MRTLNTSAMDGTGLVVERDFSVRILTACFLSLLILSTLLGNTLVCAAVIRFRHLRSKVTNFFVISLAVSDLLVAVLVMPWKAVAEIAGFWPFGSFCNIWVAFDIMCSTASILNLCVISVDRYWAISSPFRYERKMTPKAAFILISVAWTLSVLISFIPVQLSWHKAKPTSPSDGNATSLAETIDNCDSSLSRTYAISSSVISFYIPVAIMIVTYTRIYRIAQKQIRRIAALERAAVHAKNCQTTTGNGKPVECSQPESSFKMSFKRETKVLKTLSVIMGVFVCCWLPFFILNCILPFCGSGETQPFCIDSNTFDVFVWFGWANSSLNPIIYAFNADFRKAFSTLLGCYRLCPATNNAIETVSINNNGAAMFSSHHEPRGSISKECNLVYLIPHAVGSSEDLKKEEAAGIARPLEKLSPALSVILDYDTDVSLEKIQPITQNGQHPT

What is called Ki is the dissociation constant of the complex between target and ligand, obtained from inhibition or displacement. High values mean a looser hold on the target, low ones a stronger hold on the target. In general, inhibition refers to the percentage by which the read-out fell short of the control. For `COc1ccc(CO[C@H]2CCCN(Cc3cccc(C)c3)C2)cc1F` [Compound 19h, (S)-3-((3-fluoro-4-methoxybenzyl)oxy)-1-(3-methylbenzyl)piperidine], the Ki at D4 receptor and on D1 receptor was more than 10000 nM throughout. Moreover, the inhibition at 10 µM on D4 receptor (read-out: D4 % inhibition) was determined as 46%.

The CLint scaled is the capacity of the preparation to metabolise the compound, expressed as a volume cleared per time. Take `Fc1ccc(CN2CCCC23CCN(Cc2cn4ccccc4n2)C3)cc1F` (centres unmarked) [Compound 25a, 1-(3,4-difluorobenzyl)-7-(imidazo[1,2-a]pyridin-2-ylmethyl)-1,7-diazaspiro[4.4]nonane]: the “selectivity σ1:σ2” value at σ2 receptor is on record as 6. The compound further registered a Ki at D4 receptor of more than 10000 nM. Moreover, in series [1], the CLint scaled is 696 mL/min/kg and the “Predicted hepatic clearance mCLHEP” value is 79.8 mL/min/kg. In addition, in series [2], the CLint scaled is 223 mL/min/kg and the “Predicted hepatic clearance hCLHEP” value is 18.4 mL/min/kg. This compound came in with a Ki at α2A of 697 nM. Also, on α2A (σ1 over α2A), the “selectivity versus α2A” value is on record as 194.

As a reminder, the half-life is the time needed for the level to fall by half in the phase considered. The term fraction unbound denotes the share of the substance not bound to proteins or other matrix. With `Fc1cc(COC2CCN(Cc3ccc4[nH]cnc4c3)CC2)ccc1Cl` [Compound 10b, 5-((4-((4-chloro-3-fluorobenzyl)oxy)piperidin-1-yl)methyl)-1H-benzo[d]imidazole], the half-life in series [3] (brain) is 6.9 h; in series [3] (plasma), 3.7 h. In series [1], the “Predicted hepatic clearance mCLHEP” value is reported as 45.1 mL/min/kg. For the same compound, the “Predicted hepatic clearance hCLHEP” value in [2] is given as 14.2 mL/min/kg. Also, the figures for the fraction unbound in series [4] and in series [5] were 0.189 and 0.093, respectively.

`Fc1ccc(COC2CCN(Cc3ccc4[nH]cnc4c3)CC2)cc1F` [Compound 10a, 5-((4-((3,4-difluorobenzyl)oxy)piperidin-1-yl)methyl)-1H-benzo[d]imidazole]: the “selectivity σ1:σ2” value on σ2 receptor turned out to be 20. Also, in series [3] (IP 5 mg/kg, 5 h, free brain to free plasma concentration), the “B:P Kp,uu” value was 3.68. Besides, the half-life was 9.1 h in series [3] (brain) and 2.1 h in series [3] (plasma). Besides, the “selectivity against the dopamine receptor family” value on D4 receptor (σ1 over D1-5) is more than 490 fold. The “Predicted hepatic clearance mCLHEP” value in series [1] was 46.0 mL/min/kg. Moreover, in series [2], the intrinsic metabolic clearance (CLint scaled) was less than 20 mL/min/kg. Further, in series [2], the “Predicted hepatic clearance hCLHEP” value was less than 10 mL/min/kg. Also, the results for the fraction unbound in series [4] and in [5] were 0.358 and 0.205, respectively. In addition, at SERT, the “selectivity versus SERT” value worked out at 20. On α2C, this compound displayed a Ki of 853 nM. Further, the “selectivity versus α2C” value at α2C (σ1 over α2C) came out at 103.

On to `COc1ccc(CN2CCC[C@@H](OCc3ccc(F)c(C)c3)C2)cc1F` [Compound 19b, (R)-3-((4-fluoro-3-methylbenzyl)oxy)-1-(3-fluoro-4-methoxybenzyl)piperidine], for which, in series [1], the CLint scaled was determined as 961 mL/min/kg and the “Predicted hepatic clearance mCLHEP” value was 82.4 mL/min/kg. In series [2], the CLint scaled worked out at 674 mL/min/kg and the “Predicted hepatic clearance hCLHEP” value is 19.5 mL/min/kg. Besides, in series [6], the “Stability in human plasma (hPPB column)” value is “c”.
